Literature values, collected in the PKSmart pharmacokinetics tables (Seal et al. 2025).
Where a SMILES comes first, the peptide text is derived from it. Bridges are numbered along the chain shown (N, C = ends).

Assay: not given per row; by the article one of three: Lombardo et al. 2013, J Clin Pharmacol 53:178, doi 10.1177/0091270012440282; 'New Drugs at FDA', novel drug approvals for 2021 and 2022 (the article's reference 43); Yap, Li, Chen 2006, J Mol Graph Model 24:383, doi 10.1016
Conditions: human; for Vd / half-life / clearance: in vivo; for fraction unbound: plasma

| Compound | Vd [L/kg] | half-life [h] | fraction unbound | clearance [mL/min/kg] |
| --- | --- | --- | --- | --- |
| COc1ccc(-n2nccn2)c(C(=O)N2CCC[C@@]2(C)c2nc3c(C)c(Cl)ccc3[nH]2)c1 | 0.52 | 8 | 0.01 | – |
| O=[P@@]1(N(CCCl)CCCl)NCCCO1 | – | – | – | 2.54 |
| C[C@H](O)C1C(=O)N2C(C(=O)[O-])=C(SC3Cn4cnc[n+]4C3)[C@@H](C)[C@@H]12 (some centres undefined) | – | – | – | 2.77 |
| NS(=O)(=O)c1cc(-c2nn[nH]n2)c(NCc2cccs2)cc1Cl | – | – | – | 1.29 |
| N=C=N | – | – | – | 20 |
| O=[P@@]1(NCCCl)OCCCN1CCCl | – | – | – | 1.23 |
| O[P+](O)(O)C(Cl)(Cl)[P+](O)(O)O | – | – | – | 2.2 |
| COC[C@H]1CN=C(c2ccccc2Cl)c2cc(Br)ccc2N1C | – | – | – | 11.1 |
| Cc1ccc(C)c(OCCCC(C)(C)C(=O)O)c1 | – | – | – | 1.7 |
| CCOc1cc(N)c(Cl)cc1C(=O)NC[C@H]1CN(Cc2ccc(F)cc2)CCO1 | – | – | – | 16.2 |
| COc1ccccc1OCCNC[C@@H](O)COc1cccc2[nH]c3ccccc3c12 | – | – | – | 8.7 |
| O=C(O)CCC(NC(=O)NC(CCCCNC(=O)C(Cc1ccc2ccccc2c1)NC(=O)C1CCC(CNC(=O)CN2CCN(CC(=O)O)CCN(CC(=O)O)CCN(CC(=O)O)CC2)CC1)C(=O)O)C(=O)O (centres undefined) | 2.05 | 41.6 | 0.35 | 0.567 |
| CC(C(=O)O)c1ccc2oc(-c3ccc(Cl)cc3)nc2c1 (centres undefined) | – | – | – | 0.07 |
| C[C@@H]1c2cccc(O)c2C(=O)C2=C(O)[C@]3(O)C(=O)C(C(N)=O)=C(O)[C@H](N(C)C)[C@H]3[C@H](O)[C@H]21 | – | – | – | 0.52 |
| COc1cc(Cc2cnc(N)nc2N)cc(OC)c1Br | – | – | – | 0.6 |
| C[C@H]1CO[C@@H]2Cn3cc(C(=O)NCc4ccc(F)cc4F)c(=O)c(O)c3C(=O)N12 | – | – | 0.48 | – |
| NC(=O)c1cc[n+](CC2=C(C(=O)O)N3C(=O)C(NC(=O)C(c4ccccc4)S(=O)(=O)[O-])[C@@H]3SC2)cc1 (some centres undefined) | – | – | – | 1.92 |
| COCC1=C(C(=O)O)N2C(=O)C(=NC(=O)C(NOC)c3csc(N)n3)[C@H]2SC1 (some centres undefined) | – | – | – | 2.38 |
| CC(C)(C)NC[C@@H](O)COc1cccc2c1SCCC2 | – | – | – | 1.86 |
| C[C@](O)(CS(=O)(=O)c1ccc(F)cc1)C(=O)Nc1ccc(C#N)c(C(F)(F)F)c1 | – | – | – | 3.67 |
| COC(=O)C(c1ccccc1)C1CCCCN1C(=O)OC[n+]1cccc(C(=O)NC(CO)C(=O)[O-])c1 (centres undefined) | 29.3 | 5.7 | 0.44 | 60 |
| CN1CC[C@@]23c4c5ccc(O)c4OC2C(=O)CC[C@@H]3[C@@H]1C5 (some centres undefined) | – | – | – | 19.2 |
| CC(C)Nc1nc2cc(Cl)c(Cl)cc2n1[C@H]1O[C@@H](CO)[C@H](O)[C@@H]1O | 0.46 | 4.32 | 0.02 | 0.79 |
| CCN1CCC[C@@H]1CNC(=O)c1cc(S(=O)(=O)CC)c(N)cc1OC | – | – | – | 7.8 |
| CO[C@]1(NC(=O)CSCC#N)C(=O)N2C(C(=O)O)=C(CSc3nnnn3C)CS[C@H]21 | – | – | – | 1.84 |

| Compound | Vd [L/kg] | half-life [h] | fraction unbound | clearance [mL/min/kg] |
| --- | --- | --- | --- | --- |
| CN1CCN(c2c(F)cc3c(=O)c(C(=O)O)cn4c3c2SCC4)CC1 | – | – | – | 0.57 |
| Cc1c(OCC(F)(F)F)ccnc1C[S@@+](O)c1nc2ccccc2[n-]1 | – | – | – | 6.23 |
| NC(C(=O)NC1C(=O)N2C(C(=O)O)=C(Cl)CC[C@@H]12)c1ccccc1 (some centres undefined) | – | – | – | 4.45 |
| CC(C)Oc1ccc(-c2nn([C@@H](C)c3oc4ccc(F)cc4c(=O)c3-c3cccc(F)c3)c3ncnc(N)c23)cc1F | 5.2 | 91 | 0.01 | 4.31 |
| C[C@H](CCc1ccccc1)NC[C@@H](O)c1ccc(O)c(C(N)=O)c1 | – | – | – | 28.1 |
| CC(=O)C1CC[C@H]2[C@@H]3CC[C@H]4C[C@](C)(O)CC[C@]4(C)[C@H]3CC[C@]12C (some centres undefined) | – | 34 | 0.01 | – |
| C[C@H](NCCc1ccc(O)cc1)[C@H](O)c1ccc(O)cc1 | – | – | – | 8.67 |
| CC(CO)(CO)NCc1cc2c3ccccc3ccc2c2ccccc12 | – | – | – | 8.44 |
| NCCCCC(NC(=O)C1CCCN1C(=O)C1CSSCC(NC(=O)CNC(=O)CNC(=O)CN)C(=O)NC(Cc2ccc(O)cc2)C(=O)NC(Cc2ccccc2)C(=O)NC(CCC(N)=O)C(=O)NC(CC(N)=O)C(=O)N1)C(=O)NCC(N)=O (centres undefined) (H-GGGCYFQNCPKG-NH2; disulfide 4-9; configuration not given here) | 0.11 | 0.9 | – | 7.61 |
| C[C@]12CC[C@@H]3c4ccc(O)cc4CC[C@H]3[C@@H]1[C@@H](O)[C@@H](O)[C@@H]2O | – | 27 | 0.52 | – |
| CC1(C)S[C@H]2C(NC(=O)C(NC(=O)N3CCN(S(C)(=O)=O)C3=O)c3ccccc3)C(=O)N2C1C(=O)O (some centres undefined) | – | – | – | 2.71 |
| CNCC[C@H](Oc1ccccc1C)c1ccccc1 | – | – | – | 3.63 |
| C[C@]12C=CC(=O)N[C@@H]1CC[C@@H]1[C@H]2CC[C@]2(C)C(C(=O)Nc3cc(C(F)(F)F)ccc3C(F)(F)F)CC[C@@H]12 (some centres undefined) | – | – | – | 0.14 |
| CC(C)[C@@H](C)[C@@]1(C)CC[C@]2(C)[C@H]3CC[C@@H]4[C@@]5(COC[C@@]4(C)[C@@H](OC[C@](C)(N)C(C)(C)C)[C@H](n4ncnc4-c4ccncc4)C5)C3=CC[C@@]2(C)C1C(=O)O (some centres undefined) | 10 | 20 | 0.01 | – |
| NC(=O)CN1CCCC1=O | – | – | – | 1.3 |
| CON=C(C(=O)NC1C(=O)N2C(C(=O)[O-])=C(C[n+]3cccc4c3CCC4)CS[C@@H]12)c1csc(N)n1 (some centres undefined) | – | – | – | 1.98 |
| C[C@H](CN1CC(=O)NC(=O)C1)N1CC(=O)NC(=O)C1 | – | – | – | 4.42 |
| CC[C@H](OC(C)=O)C(C[C@@H](C)N(C)C)(c1ccccc1)c1ccccc1 | – | – | – | 4.09 |
| CC(C)NC[C@@H](O)c1ccc(NS(C)(=O)=O)cc1 | – | – | – | 2.14 |
| O=C(O)C1/C(=C\CO)O[C@H]2CC(=O)N12 (some centres undefined) | – | – | – | 3.6 |
| O=C1Nc2ccc(Cl)cc2[C@@](C#CC2CC2)(C(F)(F)F)O1 | – | – | – | 3.1 |
| C[C@@H]1CCC[C@@H](C)N1CCC[C@@](O)(c1ccccc1)c1ccccn1 | – | – | – | 2.34 |
| CCN(CC)C(=O)N[C@H]1C[C@@H]2c3cccc4[nH]cc(c34)C[C@H]2N(C)C1 | – | – | – | 16 |
| Nc1nnc(-c2cccc(Cl)c2Cl)c(N)n1 | – | – | – | 0.51 |
